Measured values taken from patent US20190327974A1, “SYNERGISTS FOR IMPROVED PESTICIDES” (priority 2017, published 2019).

Columns and labels:
[1] = test system: panel of CBEs from various pests; assay: Panel of insect CBEs as a whole; type: biochemical
Experimental: Assays were performed with 4-NPB as the substrate.

[2] = test system: Myzus persicae (Green peach aphid); assay: Efficacy of chlorpyrifos-ethyl with boronic acids on aphids on broad bean leaves; type: in vivo; details: for Percentage of efficacy: boronic acid where present 0.2 mg/ml
Experimental: Experimentations was carried out in BIOtransfer, France under controlled conditions.
Bean leaves were treated with chlorpyrifos 480 EC (480 g a.i./1) at 4 application rates (360, 180, 90, 45 g a.i./ha), used alone or in combination with 3 boronic acid (BA) derivates (3.10, 5 and 3.7) each at 0.2 mg/ml. The treatment was performed with an agricultural nozzle (300 L per hectare) […]. A non-treated control condition were also evaluated in parallel. Statistical analysis of the data was then performed. When the leaves were totally dry, 3 leaves were sampled and infested with 3 wingless adults of M. persicae per leaf fragment.
• T+1 (DAT 1)—One day later the number of adults remaining on the leaves was counted. • T+3 (DAT 3)—3 days after treatment the aphid population was estimated; • T+7 (DAT 7)—7 days after treatment the development of aphid population was estimated.
3 bean leaves fragments per microbox*4 microbox per condition (1 condition is 1 formulation at 1 dose)*9 adult aphids per microbox*4 insecticides (3 chlorpyrifos derivates+clorpyrifos alone)*4 rates+2 controls (1 reference insecticide formulation at one dose and non-treated)*3 assessments timings (DAT+1, DAT+3 and DAT+7).

[3] = test system: Lucilia cuprina larvae, field strain Tara resistant to diazinon; assay: Lucilia cuprina larval bioassay (pupation rate), field strain; type: in vivo
From the text: Diazinon resistance is typically associated with the Gly137Asp mutation/resistance allele. […] This is consistent with previous results showing that duplications of the chromosomal region containing αE7 have occurred, meaning that resistant strains now carry copies of both WT and Glyl37Asp LcαE7.
Two strains of L. cuprina were used: 1) a laboratory reference drug-susceptible strain, LS, derived from collections in the Australian Capital Territory over 40 years ago, with no history of exposure to insecticides; and 2) a field-collected strain, Tara, resistant to diazinon and diflubenzuron (Levot, G. W. & Sales, N. New high level resistance to diflubenzuron detected in the Australian sheep blowfly, Lucilia cuprina (Wiedemann) (Diptera: Calliphoridae). Gen. Appl. Entomol. 31, 43-46 (2002)). The LcαE7 gene was sequenced in each of the strains. Briefly, genomic DNA was prepared from 20 adult female flies from each strain using the DNeasy Blood and Tissue kit (Qiagen). PCR was performed with primers specific to the LcαE7 gene, and the product was cloned into a pGEM-T EASY vector (Promega). Eight clones of the susceptible strain and 10 clones of the resistant strain were sequenced using M13 forward and reverse primers.
The effect of compounds 2, 3, 5, 3.9 and 3.10 on the development of blowfly larvae in the presence of diazinon/malathion was assessed using a bioassay system in which larvae were allowed to develop from the first instar stage until pupation on cotton wool impregnated with diazinon/malathion over a range of concentrations, in the presence or absence of the compounds at constant concentrations (Kotze, A. C. et al. Histone deacetylase enzymes as drug targets for the control of the sheep blowfly, Lucilia cuprina. Int. J. Parasitol. Drugs Drug Resist. 5, 201-208 (2015)). Each experiment utilized 50 larvae at each diazinon/malathion concentration. Experiments were replicated three times for diazinon, and twice for malathion. The insecticidal effects were defined by measuring the pupation rate. […] Compounds were also without diazinon or malathion at 1 mg per assay.

[4] = test system: panel of 26 human serine or threonine proteases; assay: Protease selectivity panel as a whole (26 Ser/Thr proteases); type: biochemical; details: 100 μM; the 3 proteases inhibited by more than 50%
Experimental: Test compounds were dissolved in 100% DMSO to make 10 mM stock. Final compound concentration in assay is […]. Compounds were tested in duplicate wells at single concentration and the final concentration of DMSO in all assays was kept at 1%. Five reference compounds, AEBSF, Carfilzomib, Granzyme B Inhibitor II, Dec-RVKR-CMK, and Teneligliptin hydrobromide, were tested in an identical manner with 8 concentration points at 5× dilutions.

OB(O)c1ccc(OCc2ccccc2F)c(Cl)c1 [Compound 5, 3-Chloro-4(2′-fluorobenzyloxy) phenylboronic acid]
inhibition spectrum across CBEs [1]: efficiently inhibiting six different CBEs

CCOP(=S)(OCC)Oc1nc(Cl)c(Cl)cc1Cl [CPE, Chlorpyrifos-ethyl]
Percentage of efficacy ([2]; CPE 0.7, 1 DAT): 38% | Percentage of efficacy ([2]; CPE 0.7, 3 DAT): 20% | Percentage of efficacy ([2]; CPE 0.7, 7 DAT): 25% | Percentage of efficacy ([2]; CPE 1.4, 1 DAT): 41% | Percentage of efficacy ([2]; CPE 1.4, 3 DAT): 27% | Percentage of efficacy ([2]; CPE 1.4, 7 DAT): 25% | Percentage of efficacy ([2]; CPE 2.8, 1 DAT): 32% | Percentage of efficacy ([2]; CPE 2.8, 3 DAT): 26% | Percentage of efficacy ([2]; CPE 2.8, 7 DAT): 23% | Percentage of efficacy ([2]; CPE 5.6, 1 DAT): 36% | Percentage of efficacy ([2]; CPE 5.6, 3 DAT): 48% | Percentage of efficacy ([2]; CPE 5.6, 7 DAT): 67% | Calibration results (efficacy) ([2]; CPE 1.4, 1 DAT): 33% | Calibration results (efficacy) ([2]; CPE 1.4, 3 DAT): 51% | Calibration results (efficacy) ([2]; CPE 1.4, 7 DAT): 51% | Calibration results (efficacy) ([2]; CPE 2.8, 1 DAT): 31% | Calibration results (efficacy) ([2]; CPE 2.8, 3 DAT): 79% | Calibration results (efficacy) ([2]; CPE 2.8, 7 DAT): 99% | Calibration results (efficacy) ([2]; CPE 5.6, 1 DAT): 67% | Calibration results (efficacy) ([2]; CPE 5.6, 3 DAT): 98% | Calibration results (efficacy) ([2]; CPE 5.6, 7 DAT): 100%

OB(O)c1cc(Br)cc(Oc2ccccc2)c1 [Compound 3.10, 3-Bromo-5-phenoxyfenylboronic acid]
reduction of diazinon EC50 compared to a diazinon only control ([3]; field strain): 12 fold | sensitivity of field strain to diazinon compared to the laboratory strain treated with only diazinon ([3]; fold more sensitive): 4 fold

OB(O)c1cc(Br)cc(N2CCCC2)c1 [Compound 3]
residual activity of the inhibited proteases [4]: at least 30%
